This is an account of results in patent US4241056A, “Penicillins and salts thereof” (Boehringer Ingelheim GmbH, priority 1978, dated 1980).

By MIC is commonly meant the smallest concentration in the dilution series that meets the test's criterion for growth inhibition. Usually ED50 stands for the dose that gives a 50% effect, or the effect in half of the subjects.

Data set [1] can be described thus: Serum (blood) level in rats. Conditions: rat, average from 3 rats; for concentration at 1 h: 60 min.; for concentration at 2 h: 120 min.; for concentration at 0.5 h: 30 min. It counts as in vivo. How it is done: For the determination of the serum level in rats, typical representatives of the penicillins according to the invention were administered at a dosage of 10 mg/kg subcutaneously or 100 mg/kg per os to groups of 3 female FW 49 rats (weight 100 to 130 gm) each. Blood tests taken from the heart were worked up, and the obtained sera were tested by the cylinder test-agar diffusion method on plates with sarcina lutea ATCC 15957. The samples were compared with standard curves.

Data set [2] concerns escherichia coli ATCC 11775. Kind of data set: MIC, serial dilution test in the microtiter system. Type of data set: cell-based. The settings on record: ATCC11775, 18 h, E. coli ATCC 11775, 37° C., 18-20 hours. How it is done:
(§1) The tests were performed according to the method of the serial dilution test in the microtiter system. The effect of the substances on bacteriostasis was examined in a fluid medium. The activity on bacteriostatis was examined at the following concentrations:
(§2) 10 gm of peptone, 8 gm of meat extract-oxoid, 3 gm of sodium chloride, 2 gm of sec. sodium phosphate were diluted with distilled water to 1000 ml (pH 7.2-7.4). Only in the test against streptococci 1% of glucose was added. The age of the primary cultures was about 20 hours. The standardizations of the pathogen suspension was effected by using a photometer according to "Eppendorf" (test tube diameter 14 mm, filter 546 nm) with the aid of the turbidity of a comparison suspension consisting of barium sulfate, this suspension being prepared by addition of 3.0 ml of 1% barium chloride solution to 97 ml of 1% sulfuric acid. After the standardization, streptococcus aronson were further diluted to a concentration of 1:15 and the other germs to a concentration of 1:1500 by menas of a sodium chloride solution.
(§3) 16 mg of the test substance were put into a 10 ml measuring flask and filled up to the mark with the solvent. The further dilution series was standardized with distilled water or the respective solvent.
(§4) The cavities of the microtiter plates were filled with 0.2 ml of nutrient medium. Then, 0.01 ml of the corresponding test substance dilution was added and inoculated with 0.01 ml of the standardized suspension. The bacteria were incubated at 37° C. for 18-20 hours. Control tests merely using the solvent were carried out simultaneously.
(§5) The measurement was carried out macroscopically to determine the minimal inhibitory (threshold) concentration, i.e. the lowest still bacteriostatically effective concentration.
(§6) Staphylococcus aureus SG 511, streptococcus aronson, streptococcus faecalis ATCC 10541, escherichia coli ATCC 9637, 11 775 and escherichia coli 12593/74 (β-lactamase carrier), pseudomonas aeruginosa hamburgensis and ATCC 10145, serratia marcescens ATCC 13 880, klebsiella pneumoniae ATCC 10 031 and 272 and proteus mirabilis hamburgensis.

The test system of data set [3] is klebsiella pneumoniae 272. As to the kind of experiment: MIC, serial dilution test in the microtiter system. It counts as cell-based. Conditions: 18 h, klebs pneum. 272, 37° C., 18-20 hours. How it is done: as §1, §2, §3, §4, §5, §6
Data set [4] deals with escherichia coli ATCC 9637. Kind of data set: MIC, serial dilution test in the microtiter system. It counts as cell-based. The settings on record: ATCC9637, 18 h, E. coli ATCC 9637, 37° C., 18-20 hours. On the procedure: as §1, §2, §3, §4, §5, §6
Data set [5] relates to escherichia coli 12593/74 (β-lactamase carrier). Kind of data set: MIC, serial dilution test in the microtiter system. It counts as cell-based. The settings on record: 18 h, E. coli 12593/74 (β-lactamase carrier), 37° C., 18-20 hours. On the procedure:
as §1, §2, §3, §4, §5, §6

Data set [6] concerns pseudomonas aeruginosa ATCC 10145. Kind of data set: MIC, serial dilution test in the microtiter system. The settings on record: ATCC10145, 18 h, pseud. aerug. ATCC 10145, 37° C., 18-20 hours. It counts as cell-based. On the procedure: as §1, §2, §3, §4, §5, §6
The subject of another data set is streptococcus aronson. Kind of data set: MIC, serial dilution test in the microtiter system. Type of data set: cell-based. Conditions: 18 h, strept. aronson, 1% glucose added, 37° C., 18-20 hours. On the procedure: as §1, §2, §3, §4, §5, §6
Data set [7] has as its system proteus mirabilis hamburgensis. As to the kind of experiment: MIC, serial dilution test in the microtiter system. Conditions: 18 h, prot. mirabilis, 37° C., 18-20 hours. It counts as cell-based. On the procedure: as §1, §2, §3, §4, §5, §6
For data set [8], the system named is streptococcus faecalis ATCC 10541. As to the kind of experiment: MIC, serial dilution test in the microtiter system. It counts as cell-based. Conditions: Enterococcus faecalis, ATCC10541, 18 h; strept. faecal.; 37° C., 18-20 hours. How it is done: as §1, §2, §3, §4, §5, §6
For data set [9], the system named is Staphylococcus aureus SG 511. As to the kind of experiment: MIC, serial dilution test in the microtiter system. Type of data set: cell-based. The settings on record: SG511, 18 h, Staph. Aureus SG 511, 37° C., 18-20 hours. On the procedure: as §1, §2, §3, §4, §5, §6
Data set [10] has as its system klebsiella pneumoniae ATCC 10 031. As to the kind of experiment: MIC, serial dilution test in the microtiter system. Type of data set: cell-based. The settings on record: 18 h, klebs pneum ATCC 10031, 37° C., 18-20 hours. On the procedure: as §1, §2, §3, §4, §5, §6
The subject of data set [11] is serratia marcescens ATCC 13 880. As to the kind of experiment: MIC, serial dilution test in the microtiter system. It counts as cell-based. The settings on record: ATCC13, 18 h, serrat marcesc., 37° C., 18-20 hours. How it is done:
as §1, §2, §3, §4, §5, §6

Data set [12] concerns pseudomonas aeruginosa hamburgensis. As to the kind of experiment: MIC, serial dilution test in the microtiter system. It counts as cell-based. Conditions: 18 h, pseud. aerug. hamb., 37° C., 18-20 hours. On the procedure:
as §1, §2, §3, §4, §5, §6

Another data set has as its system E. coli ATCC 11775. Kind of data set: In vivo activity against experimental infection in mice. More on the design: species or system mouse (NMRI). Conditions: Escherichia coli, ATCC11775, sc, 168 h, subcutaneous, 7 days observation, read-out: ED50 (dose at which 50% of the animals survived). How it is done:
A number of compounds of this invention were tested in vivo in mice against experimental infections. Bacteria E. coli ATCC 11775 and pseudomonas aeruginosa walter were used as pathogens. An intraperitoneal infection with 0.2 ml of a 5% mucin suspension of the bacteria was induced. This corresponds to about 2×10^6 germs E. coli and 8×10^5 germs pseudomonas/mouse. Female NMRI mice were divided into groups of 10 animals each, two control groups remained untreated, the remaining groups were treated with different doses of the respective penicillins for the determination of the ED50 (dose at which 50% of the animals survived). The groups with the E. coli infection were treated with the substance 3 times on the first day (1, 4 and 7 hours post-infectionem) and for 2 days thereafter twice a day. The groups with the pseudomonas infection were treated with the substance applied 6 times on the first day (1, 3, 6, 9, 12, and 15 hours post-infectionem) and for 2 days thereafter twice a day. The observation time was in both cases 7 days.

In the case of `Cc1ncc(NC(=O)N[C@@H](C(=O)N[C@@H]2C(=O)N3[C@@H]2SC(C)(C)[C@@H]3C(=O)O)c2ccc(O)cc2)c(O)n1` [B, D-α-[3-(4-hydroxy-2-methyl-5-pyrimidyl)-ureido]-p-hydroxybenzyl-penicillin sodium], the concentration at 1 h in data set [1] (oral 100 mg/kg) was found to be 18800 ng/mL; in data set [1] (sc, subcutaneous 10 mg/kg), 7300 ng/mL. For the same compound, the concentration at 2 h is 1900 ng/mL in data set [1] (oral 100 mg/kg) and 1100 ng/mL in data set [1] (sc, subcutaneous 10 mg/kg). Further, the MIC turned out to be 1.25 µg/mL in [2]; 80 µg/mL in data set [3]; 2.5 µg/mL in data set [4]; 80 µg/mL in data set [5]; 2.5 µg/mL in data set [6]; 0.3 µg/mL in the data set on streptococcus aronson. For the same compound, the MIC in [7] amounted to 0.6 µg/mL; in data set [8], 10 µg/mL; in data set [9], 1.25 µg/mL; in data set [10], 80 µg/mL; in [11], 5 µg/mL; in data set [12], 5 µg/mL. Besides, the ED50 in the data set on E. coli ATCC 11775 is 5 mg/kg.
As for `CC(=O)Nc1ncc(NC(=O)N[C@@H](C(=O)N[C@@H]2C(=O)N3[C@@H]2SC(C)(C)[C@@H]3C(=O)O)c2ccc(O)cc2)c(O)n1` [Compound E, D-α-[3-(acetylamino-4-hydroxy-pyrimidyl)-ureido]-p-hydroxybenzyl-penicillin sodium], the concentration at 0.5 h in data set [1] (oral 100 mg/kg) stood at 13800 ng/mL; in data set [1] (sc, subcutaneous 10 mg/kg), 4100 ng/mL. For the same compound, the concentration at 1 h in data set [1] (oral 100 mg/kg) is 13900 ng/mL; in data set [1] (sc, subcutaneous 10 mg/kg) it was 5800 ng/mL. In addition, the concentration at 2 h was determined as 13700 ng/mL in data set [1] (oral 100 mg/kg) and 7700 ng/mL in data set [1] (sc, subcutaneous 10 mg/kg). Moreover, the MIC in data set [2] is 2.5 µg/mL; in data set [3], 80 µg/mL; in data set [4], 5 µg/mL; in data set [5] it was > 80 µg/mL; in data set [6], 2.5 µg/mL; in the data set on streptococcus aronson, 0.3 µg/mL. In addition, the MIC amounted to 1.25 µg/mL in data set [7]; 10 µg/mL in [8]; 1.25 µg/mL in [9]; 80 µg/mL in data set [10]; 10 µg/mL in data set [11]; 2.5 µg/mL in data set [12]. Moreover, the median effective dose (ED50) with E. coli ATCC 11775 was 15 mg/kg.
As for `CC1(C)S[C@@H]2[C@H](NC(=O)[C@H](NC(=O)Nc3cnc(Cc4ccc(Cl)cc4)nc3O)c3ccc(O)cc3)C(=O)N2[C@H]1C(=O)O` [D, D-α-[3-(2-p-chlorobenzyl-4-hydroxy-5-pyrimidyl)-ureido]-p-hydroxybenzyl-penicillin sodium], the concentration at 1 h in data set [1] (oral 100 mg/kg) came to 4100 ng/mL; in data set [1] (sc, subcutaneous 10 mg/kg), 7100 ng/mL. The concentration at 2 h stood at 1000 ng/mL in [1] (oral 100 mg/kg) and 300 ng/mL in data set [1] (sc, subcutaneous 10 mg/kg). In addition, the MIC in [2] turned out to be 1.25 µg/mL; in data set [3], 10 µg/mL; in [4], 2.5 µg/mL; in data set [5], 80 µg/mL; in data set [6] it was 2.5 µg/mL; in the data set on streptococcus aronson, 0.02 µg/mL. The minimal inhibitory concentration (MIC) in data set [7] turned out to be 1.25 µg/mL; in data set [8] it was 10 µg/mL; in data set [9], 0.08 µg/mL; in data set [10] it was 5 µg/mL; in data set [11] it was 1.25 µg/mL; in [12] it was 5 µg/mL. Further, the ED50 in the data set on E. coli ATCC 11775 amounted to 9 mg/kg.
Regarding `CC1(C)S[C@@H]2[C@H](NC(=O)[C@H](NC(=O)Nc3cnc(Nc4ccccc4)nc3O)c3ccc(O)cc3)C(=O)N2[C@H]1C(=O)O` [G, D-α-[3-(2-anilino-4-hydroxy-5-pyrimidyl)-ureido]-p-hydroxy-benzyl-penicillin sodium], the concentration at 1 h came out at 600 ng/mL in data set [1] (oral 100 mg/kg) and 5600 ng/mL in [1] (sc, subcutaneous 10 mg/kg). Moreover, the concentration at 2 h in data set [1] (oral 100 mg/kg) turned out to be 100 ng/mL; in data set [1] (sc, subcutaneous 10 mg/kg) it was 1500 ng/mL. In addition, the MIC in data set [2] is 1.25 µg/mL; in data set [3], 5 µg/mL; in [4], 0.6 µg/mL; in data set [5], > 80 µg/mL; in [6], 2.5 µg/mL; against streptococcus aronson it was 0.08 µg/mL. Also, the MIC in [7] was 2.5 µg/mL; in [8], 5 µg/mL; in data set [9], 0.3 µg/mL; in [10] it was 10 µg/mL; in data set [11] it was 0.3 µg/mL; in data set [12] it was 5 µg/mL. In the data set with E. coli ATCC 11775, the ED50 was 8 mg/kg.
